# Oligonucleotides are written 5' to 3', each unit as a sugar letter and its base; * is a phosphorothioate linkage, no mark a phosphodiester; rarer units and linkages stand in square brackets, end groups in braces. Plain capitals give the bases only. d = 2'-deoxy (DNA); r = 2'-OH (RNA)
# Target: UBE2S
# Assay: reporter assay of Huesken 2005
# Settings: siRNA
# Also: test concentration or dose not given here.
row,Substance,normalised inhibition (eCFP-eYFP dual reporter) [%]
1,sense rGrCrUrGrGrGrGrArArGrGrArCrUrUrCrCrCrUdTdT / antisense rArGrGrGrArArGrUrCrCrUrUrCrCrCrCrArGrCdAdG,53.9
2,sense rGrGrArGrArArCrUrArCrGrArGrGrArGrUrArUdTdT / antisense rArUrArCrUrCrCrUrCrGrUrArGrUrUrCrUrCrCdAdA,56.3
3,sense rGrGrCrArUrCrArArGrGrUrCrUrUrUrCrCrCrAdTdT / antisense rUrGrGrGrArArArGrArCrCrUrUrGrArUrGrCrCdAdT,57.3
4,sense rGrGrCrCrArArGrArArGrCrArUrGrCrUrGrGrCdTdT / antisense rGrCrCrArGrCrArUrGrCrUrUrCrUrUrGrGrCrCdAdT,57.2
5,sense rGrGrCrCrGrCrCrUrGrCrUrCrUrUrGrGrArGrAdTdT / antisense rUrCrUrCrCrArArGrArGrCrArGrGrCrGrGrCrCdCdG,69.4
6,sense rGrGrCrUrArCrUrUrCrCrUrGrArCrCrArArGrAdTdT / antisense rUrCrUrUrGrGrUrCrArGrGrArArGrUrArGrCrCdCdT,91.7
7,sense rGrGrGrCrCrCrUrGrGrCrCrArGrUrGrGrCrArCdTdT / antisense rGrUrGrCrCrArCrUrGrGrCrCrArGrGrGrCrCrCdGdA,43
8,sense rGrGrGrCrCrGrArArGrCrCrGrGrUrCrGrGrGrCdTdT / antisense rGrCrCrCrGrArCrCrGrGrCrUrUrCrGrGrCrCrCdTdG,36.4
9,sense rGrGrGrCrUrGrArGrGrGrUrCrCrCrArUrGrGrCdTdT / antisense rGrCrCrArUrGrGrGrArCrCrCrUrCrArGrCrCrCdCdT,45.7
10,sense rGrGrGrGrCrUrGrArGrGrGrUrCrCrCrArUrGrGdTdT / antisense rCrCrArUrGrGrGrArCrCrCrUrCrArGrCrCrCrCdTdC,42.8
11,sense rGrGrUrGrArCrGrArCrArCrUrGrArCrCrGrCrAdTdT / antisense rUrGrCrGrGrUrCrArGrUrGrUrCrGrUrCrArCrCdTdC,88.7
12,sense rGrUrArUrGrCrArGrCrUrCrGrGrGrCrCrCrGrUdTdT / antisense rArCrGrGrGrCrCrCrGrArGrCrUrGrCrArUrArCdTdC,47
13,sense rGrUrCrArCrCrArUrCrGrArGrGrGrCrCrCrUrGdTdT / antisense rCrArGrGrGrCrCrCrUrCrGrArUrGrGrUrGrArCdCdT,45.1
14,sense rGrUrGrGrGrCrGrCrCrArArUrGrGrCrGrArGrAdTdT / antisense rUrCrUrCrGrCrCrArUrUrGrGrCrGrCrCrCrArCdGdT,54.4
15,sense rUrArArCrCrCrCrGrArGrUrCrUrGrCrArCrUrCdTdT / antisense rGrArGrUrGrCrArGrArCrUrCrGrGrGrGrUrUrAdGdG,39.5
16,sense rUrCrArCrCrArUrCrGrArGrGrGrCrCrCrUrGrAdTdT / antisense rUrCrArGrGrGrCrCrCrUrCrGrArUrGrGrUrGrAdCdC,35.9
17,sense rUrCrCrArCrCrCrUrArArCrCrCrCrGrArGrUrCdTdT / antisense rGrArCrUrCrGrGrGrGrUrUrArGrGrGrUrGrGrAdTdC,39.4
18,sense rUrCrCrCrArArCrGrArGrGrArGrGrArCrCrUrCdTdT / antisense rGrArGrGrUrCrCrUrCrCrUrCrGrUrUrGrGrGrAdAdA,35.7
19,sense rUrCrCrCrCrArCrCrCrArArGrGrGrCrUrArCrUdTdT / antisense rArGrUrArGrCrCrCrUrUrGrGrGrUrGrGrGrGrAdGdG,48.9
20,sense rUrCrUrGrUrUrCrCrGrCrArUrGrArArArCrUrCdTdT / antisense rGrArGrUrUrUrCrArUrGrCrGrGrArArCrArGrAdCdC,42.3
21,sense rUrGrArArArCrUrCrCrUrGrCrUrGrGrGrGrArAdTdT / antisense rUrUrCrCrCrCrArGrCrArGrGrArGrUrUrUrCrAdTdG,54
22,sense rUrGrCrGrUrCrArArCrGrUrGrCrUrCrArArGrAdTdT / antisense rUrCrUrUrGrArGrCrArCrGrUrUrGrArCrGrCrAdGdA,74.5
23,sense rUrGrCrUrCrUrUrGrGrArGrArArCrUrArCrGrAdTdT / antisense rUrCrGrUrArGrUrUrCrUrCrCrArArGrArGrCrAdGdG,77.8
24,sense rUrGrGrArGrGrUrCrUrGrUrUrCrCrGrCrArUrGdTdT / antisense rCrArUrGrCrGrGrArArCrArGrArCrCrUrCrCrAdGdC,58.5
25,sense rUrGrGrCrGrArGrArUrCrUrGrCrGrUrCrArArCdTdT / antisense rGrUrUrGrArCrGrCrArGrArUrCrUrCrGrCrCrAdTdT,85.6
26,sense rUrUrCrCrCrArArCrGrArGrGrArGrGrArCrCrUdTdT / antisense rArGrGrUrCrCrUrCrCrUrCrGrUrUrGrGrGrArAdAdG,41.6
